Results taken from patent publication US12599582B2, “Pyrrole compounds” (ALIGOS THERAPEUTICS, INC., priority 2019, dated 2026).
pEC50: −log10 of the molar value. Where two headings read alike, the source gives them in different places.

System: HBV
Assay: HBV-DNA Antiviral Assay Using HepG2.2.15 Cells (extracellular HBV DNA by qPCR)
Format: cell-based, hepatitis B virus (HBV)
Procedure, shortened: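 HepG2.2.15 cells were treated on day 1 with 8 concentrations (4-fold dilutions, duplicate; 0.5% DMSO), with compound-containing medium refreshed on day 4, at 37 °C. On day 7, supernatant HBV DNA was measured by qPCR against a plasmid standard curve, with inhibition normalised between DMSO and ETV controls. EC50/EC90 and CC50 (CellTiter-Glo ATP) came from variable-slope fits.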

[1] = Hepatitis B virus, HBV DNA inhibition, HepG2.2.15 cells, extracellular HBV DNA by qPCR, read-out: EC50

`C#C[C@H](NC(=O)C(=O)c1c(C)c(C(=O)Nc2ccc(F)c(C#N)c2)n(C)c1C)C1COC1` [Compound 57] showed a pEC50 (HBV DNA inhibition, HepG2.2.15 cells, extracellular HBV DNA by qPCR, read-out: EC50) greater than 9.00.

For `C#CC1(NC(=O)C(=O)c2c(C)c(C(=O)Nc3ccc(F)c(C#N)c3)n(C)c2C)COC1` [Compound 26, N-(3-cyano-4-fluorophenyl)-4-[[(3-ethynyloxetan-3-yl)carbamoyl]carbonyl]-1,3,5-trimethylpyrrole-2-carboxamide], the pEC50 (Hepatitis B virus, HepG2.2.15) was greater than 9.00.

`C#CC1(NC(=O)C(=O)c2c(C)c(C(=O)Nc3ccc(F)c(C#N)c3)n(C)c2Cl)COC1` [Compound 40, 5-chloro-N-(3-cyano-4-fluoro-phenyl)-4-[2-[(3-ethynyloxetan-3-yl)amino]-2-oxo-acetyl]-1,3-dimethyl-pyrrole-2-carboxamide] gave a pEC50 [1] greater than 9.00.

`C#C[C@@](CO)(NC(=O)C(=O)c1c(C)c(C(=O)Nc2ccc(F)c(C#N)c2)n(C)c1C)C(F)(F)F` [Compound 71b, N-(3-cyano-4-fluoro-phenyl)-1,3,5-trimethyl-4-[2-oxo-2-[[(1S)-1-(hydroxymethyl)-1-(trifluoromethyl)prop-2-ynyl]amino]acetyl]pyrrole-2-carboxamide] was tested, and the pEC50 [1] was 8.00 to 9.00.

`C#CC1(NC(=O)C(=O)c2c(F)c(C(=O)Nc3ccc(F)c(C#N)c3)n(C)c2C)COC1` [Compound 55, N-(3-cyano-4-fluoro-phenyl)-4-[2-[(3-ethynyloxetan-3-yl)amino]-2-oxo-acetyl]-3-fluoro-1,5-dimethyl-pyrrole-2-carboxamide] gave a pEC50 [1] greater than 9.00.

Molecule `C=C[C@](CO)(NC(=O)C(=O)c1c(C)c(C(=O)Nc2ccc(F)c(C#N)c2)n(C)c1C)C(F)(F)F` [Compound 74a, N-(3-cyano-4-fluoro-phenyl)-1,3,5-trimethyl-4-[2-oxo-2-[[(1R)-1-(hydroxymethyl)-1-(trifluoromethyl)allyl]amino]acetyl]pyrrole-2-carboxamide] has a pEC50 [1] of 8.00 to 9.00.

Work on `Cc1c(C(=O)C(=O)NC(C)(C)c2ncc[nH]2)c(C)n(C)c1C(=O)Nc1ccc(F)c(C#N)c1` [Compound 131, N-(3-cyano-4-fluoro-phenyl)-4-[2-[[1-(1H-imidazol-2-yl)-1-methyl-ethyl]amino]-2-oxo-acetyl]-1,3,5-trimethyl-pyrrole-2-carboxamide] yielded a pEC50 [1] of 8.00 to 9.00.

With `C#CCNC(=O)C(=O)c1cn(C)c(C(=O)Nc2ccc(F)c(C#N)c2)c1C` [Compound 8, N-(3-cyano-4-fluoro-phenyl)-1,3-dimethyl-4-[2-oxo-2-(prop-2-ynylamino)acetyl]pyrrole-2-carboxamide] the pEC50 [1] was 7.00 to 8.00.

In the case of `C#CCNC(=O)C(=O)c1cn(C)c(C(=O)Nc2ccc(F)c(C#N)c2)c1F` [Compound 6, N-(3-cyano-4-fluoro-phenyl)-3-fluoro-1-methyl-4-[2-oxo-2-(prop-2-ynylamino)acetyl]pyrrole-2-carboxamide], the pEC50 [1] was 6.00 to 7.00.

`Cc1c(C(=O)C(=O)NC(C)(C)c2cnn(C3CC3)c2)c(C)n(C)c1C(=O)Nc1ccc(F)c(C(F)(F)F)c1` [Compound 136, 4-[2-[[1-(1-cyclopropylpyrazol-4-yl)-1-methyl-ethyl]amino]-2-oxo-acetyl]-N-[4-fluoro-3-(trifluoromethyl)phenyl]-1,3,5-trimethyl-pyrrole-2-carboxamide] showed a pEC50 [1] of 8.00 to 9.00.

`C=C[C@](C)(CO)NC(=O)C(=O)c1c(C)c(C(=O)Nc2ccc(F)c(C(F)(F)F)c2)n(C)c1C` [Compound 69a, N-[4-fluoro-3-(trifluoromethyl)phenyl]-1,3,5-trimethyl-4-[2-oxo-2-[[(1R)-1-(hydroxymethyl)-1-methyl-allyl]amino]acetyl]pyrrole-2-carboxamide] gave a pEC50 [1] of 8.00 to 9.00.

`C=CC1(NC(=O)C(=O)c2c(Cl)c(C(=O)Nc3ccc(F)c(C#N)c3)n(C)c2C)CC(F)(F)C1` [Compound 51, 3-chloro-N-(3-cyano-4-fluoro-phenyl)-4-[2-[(3,3-difluoro-1-vinyl-cyclobutyl)amino]-2-oxo-acetyl]-1,5-dimethyl-pyrrole-2-carboxamide] showed a pEC50 [1] greater than 9.00.

In the case of `C#CC1(NC(=O)C(=O)c2c(C)c(C(=O)Nc3ccc(F)c(C#N)c3)n(C)c2C)CC(F)(F)C1` [Compound 24, N-(3-cyano-4-fluoro-phenyl)-4-[2-[(1-ethynyl-3,3-difluoro-cyclobutyl)amino]-2-oxo-acetyl]-1,3,5-trimethyl-pyrrole-2-carboxamide], the pEC50 [1] was greater than 9.00.

`C=CCNC(=O)C(=O)c1c(C)c(C(=O)Nc2ccnc(Br)c2F)n(C)c1C` [Compound 5, 4-[2-(allylamino)-2-oxo-acetyl]-N-(2-bromo-3-fluoro-4-pyridy1)-1,3,5-trimethyl-pyrrole-2-carboxamide] was tested, and the pEC50 [1] was 7.00 to 8.00.

In the case of `C#CC1(N(COC(=O)[C@@H](N)C(C)C)C(=O)C(=O)c2c(C)c(C(=O)Nc3ccc(F)c(C#N)c3)n(C)c2C)COC1` [Compound 105, [[2-[5-[(3-cyano-4-fluoro-phenyl)carbamoyl]-1,2,4-trimethyl-pyrrol-3-yl]-2-oxo-acetyl]-(3-ethynyloxetan-3-yl)amino]methyl-(2S)-2-amino-3-methyl-butanoate], the pEC50 [1] was 8.00 to 9.00.

For `Cc1c(C(=O)C(=O)NC(C)(C)c2ccc[nH]c2=O)c(C)n(C)c1C(=O)Nc1ccc(F)c(C(F)(F)F)c1` [Compound 159, N-[4-fluoro-3-(trifluoromethyl)phenyl]-1,3,5-trimethyl-4-[2-[[1-methyl-1-(2-oxo-1H-pyridin-3-yl)ethyl]amino]-2-oxo-acetyl]pyrrole-2-carboxamide], the pEC50 [1] was 8.00 to 9.00.

`Cc1c(C(=O)C(=O)NC(C)(C)c2ccccn2)c(C)n(C)c1C(=O)Nc1ccc(F)c(C#N)c1` [Compound 91, N-(3-cyano-4-fluoro-phenyl)-1,3,5-trimethyl-4-[2-[[1-methyl-1-(2-pyridyl)ethyl]amino]-2-oxo-acetyl]pyrrole-2-carboxamide] was tested, and the pEC50 [1] was 8.00 to 9.00.

`C#CCNC(=O)C(=O)c1c(F)c(C(=O)Nc2ccc(F)c(C#N)c2)n(C)c1Cl` [Compound 12, 5-chloro-N-(3-cyano-4-fluoro-phenyl)-3-fluoro-1-methyl-4-[2-oxo-2-(prop-2-ynylamino)acetyl]pyrrole-2-carboxamide] gave a pEC50 [1] of 6.00 to 7.00.

In the case of `C#CC1(NC(=O)C(=O)c2c(C)c(C(=O)Nc3ccc(F)c(F)c3)n(C)c2C)COC1` [Compound 86, N-(3,4-difluorophenyl)-4-[2-[(3-ethynyloxetan-3-yl)amino]-2-oxo-acetyl]-1,3,5-trimethyl-pyrrole-2-carboxamide], the pEC50 [1] was 8.00 to 9.00.

In the case of `C=C[C@@H](NC(=O)C(=O)c1c(C)c(C(=O)Nc2ccc(F)c(C#N)c2)n(C)c1C)C(F)(F)F` [Compound 36b, N-(3-cyano-4-fluoro-phenyl)-1,3,5-trimethyl-4-[2-oxo-2-[[(1R)-1-(trifluoromethyl)allyl]amino]acetyl]pyrrole-2-carboxamide], the pEC50 [1] was greater than 9.00.

`C#CC1(NC(=O)C(=O)c2c(C)c(C(=O)Nc3ccc(Cl)c(Br)c3)n(C)c2C)CC(F)(F)C1` [Compound 133, N-(3-bromo-4-chloro-phenyl)-4-[2-[(1-ethynyl-3,3-difluoro-cyclobutyl)amino]-2-oxo-acetyl]-1,3,5-trimethyl-pyrrole-2-carboxamide] gave a pEC50 [1] of 8.00 to 9.00.

For `C#CCNC(=O)C(=O)c1c(Cl)c(C(=O)Nc2ccc(F)c(C#N)c2)n(C)c1C` [Compound 21, 3-chloro-N-(3-cyano-4-fluoro-phenyl)-1,5-dimethyl-4-[2-oxo-2-(prop-2-ynylamino)acetyl]pyrrole-2-carboxamide], the pEC50 [1] was 8.00 to 9.00.

For `Cc1c(C(=O)C(=O)NC(C)(C)c2c[nH]cn2)c(C)n(C)c1C(=O)Nc1ccc(F)c(C(F)(F)F)c1` [Compound 106, N-[4-fluoro-3-(trifluoromethyl)phenyl]-4-[2-[[1-(1H-imidazol-4-yl)-1-methyl-ethyl]amino]-2-oxo-acetyl]-1,3,5-trimethyl-pyrrole-2-carboxamide], the pEC50 [1] was 8.00 to 9.00.

Molecule `C#CC(C)(C)NC(=O)C(=O)c1c(C)c(C(=O)Nc2ccc(F)c(F)c2)n(C)c1C` [Compound 90, N-(3,4-difluorophenyl)-4-[2-(1,1-dimethylprop-2-ynylamino)-2-oxo-acetyl]-1,3,5-trimethyl-pyrrole-2-carboxamide] has a pEC50 [1] of 8.00 to 9.00.

For `C#C[C@@H](NC(=O)C(=O)c1c(C)c(C(=O)Nc2ccc(F)c(C(F)(F)F)c2)n(C)c1C)C1CC1` [Compound 38b, N-[4-fluoro-3-(trifluoromethyl)phenyl]-1,3,5-trimethyl-4-[2-oxo-2-[[(1S)-1-cyclopropylprop-2-ynyl]amino]acetyl]pyrrole-2-carboxamide], the pEC50 [1] was greater than 9.00.

`Cc1c(C(=O)C(=O)NC(C)(C)c2nnco2)c(C)n(C)c1C(=O)Nc1ccc(F)c(C(F)(F)F)c1` [Compound 143, N-[4-fluoro-3-(trifluoromethyl)phenyl]-1,3,5-trimethyl-4-[2-[[1-methyl-1-(1,3,4-oxadiazol-2-yl)ethyl]amino]-2-oxo-acetyl]pyrrole-2-carboxamide] gave a pEC50 [1] of 8.00 to 9.00.

For `C#CC1(NC(=O)C(=O)c2c(C)c(C(=O)Nc3ccc(F)c(C#N)c3)n(C)c2C)CCOCC1` [Compound 107, N-(3-cyano-4-fluoro-phenyl)-4-[2-[(4-ethynyltetrahydropyran-4-yl)amino]-2-oxo-acetyl]-1,3,5-trimethyl-pyrrole-2-carboxamide], the pEC50 [1] was 8.00 to 9.00.

In the case of `Cc1c(C(=O)C(=O)NC2(C#C[C@H](C)O)COC2)c(C)n(C)c1C(=O)Nc1ccc(F)c(C#N)c1` [Compound 94b, N-(3-cyano-4-fluoro-phenyl)-1,3,5-trimethyl-4-[2-oxo-2-[[3-[(3S)-3-hydroxybut-1-ynyl]oxetan-3-yl]amino]acetyl]pyrrole-2-carboxamide], the pEC50 [1] was 8.00 to 9.00.

In the case of `C#CCNC(=O)C(=O)c1cn(C)c(C(=O)Nc2ccc(F)c(C#N)c2)c1Cl` [Compound 10, 3-chloro-N-(3-cyano-4-fluoro-phenyl)-1-methyl-4-[2-oxo-2-(prop-2-ynylamino)acetyl]pyrrole-2-carboxamide], the pEC50 [1] was 7.00 to 8.00.

For `Cc1c(C(=O)C(=O)NC2(C#CCO)COC2)c(C)n(C)c1C(=O)Nc1ccc(F)c(C#N)c1` [Compound 76, N-(3-cyano-4-fluoro-phenyl)-4-[2-[[3-(3-hydroxyprop-1-ynyl)oxetan-3-yl]amino]-2-oxo-acetyl]-1,3,5-trimethyl-pyrrole-2-carboxamide], the pEC50 [1] was 7.00 to 8.00.
